{
  "source": "ChEMBL document CHEMBL6115021",
  "about": "“Design of Benzyl-triazolopyrimidine-Based NADPH Oxidase Inhibitors Leads to the Discovery of a Potent Dual Covalent NOX2/MAOB Inhibitor” (J Med Chem, 2025)",
  "key": {"[1]": {"biological_target": "T1, NADPH oxidase 2 (Homo sapiens, UniProt P04839)", "T1 sequence (P04839 whole entry)": "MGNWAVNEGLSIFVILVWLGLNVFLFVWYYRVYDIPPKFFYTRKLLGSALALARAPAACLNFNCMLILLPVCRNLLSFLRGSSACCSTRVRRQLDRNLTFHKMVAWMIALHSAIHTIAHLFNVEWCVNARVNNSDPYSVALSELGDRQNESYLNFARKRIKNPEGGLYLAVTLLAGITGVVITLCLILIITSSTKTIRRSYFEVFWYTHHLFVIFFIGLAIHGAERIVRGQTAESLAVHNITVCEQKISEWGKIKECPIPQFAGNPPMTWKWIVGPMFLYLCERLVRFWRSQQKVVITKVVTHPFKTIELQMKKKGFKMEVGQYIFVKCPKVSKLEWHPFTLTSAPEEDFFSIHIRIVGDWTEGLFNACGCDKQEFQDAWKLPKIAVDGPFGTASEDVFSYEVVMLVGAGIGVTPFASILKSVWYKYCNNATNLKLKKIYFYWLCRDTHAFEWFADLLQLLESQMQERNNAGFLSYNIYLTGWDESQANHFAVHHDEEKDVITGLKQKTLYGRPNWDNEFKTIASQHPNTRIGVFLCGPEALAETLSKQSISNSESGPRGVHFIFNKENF", "assay": "Inhibition of human NOX2"}, "[2]": {"biological_target": "T2, NADPH oxidase 4 (Homo sapiens, UniProt Q9NPH5)", "T2 sequence (Q9NPH5 whole entry)": "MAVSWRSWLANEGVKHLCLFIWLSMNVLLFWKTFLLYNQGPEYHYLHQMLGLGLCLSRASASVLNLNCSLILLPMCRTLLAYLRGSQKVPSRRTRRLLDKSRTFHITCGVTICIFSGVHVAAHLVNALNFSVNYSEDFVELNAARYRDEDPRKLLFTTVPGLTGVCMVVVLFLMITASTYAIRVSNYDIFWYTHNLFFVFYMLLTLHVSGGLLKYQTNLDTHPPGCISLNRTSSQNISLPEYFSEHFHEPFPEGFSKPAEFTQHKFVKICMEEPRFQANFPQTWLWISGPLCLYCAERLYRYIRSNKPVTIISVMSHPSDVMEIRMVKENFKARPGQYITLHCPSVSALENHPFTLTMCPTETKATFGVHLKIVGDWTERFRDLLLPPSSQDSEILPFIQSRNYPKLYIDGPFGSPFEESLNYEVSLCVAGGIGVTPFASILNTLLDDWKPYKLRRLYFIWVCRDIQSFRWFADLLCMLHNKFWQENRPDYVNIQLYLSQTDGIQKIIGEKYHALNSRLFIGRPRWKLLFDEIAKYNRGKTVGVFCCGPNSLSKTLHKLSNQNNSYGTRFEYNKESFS", "assay": "Inhibition of human NOX4"}, "[3]": {"biological_target": "Albumin (Bos taurus, UniProt P02769)", "sequence (P02769 whole entry)": "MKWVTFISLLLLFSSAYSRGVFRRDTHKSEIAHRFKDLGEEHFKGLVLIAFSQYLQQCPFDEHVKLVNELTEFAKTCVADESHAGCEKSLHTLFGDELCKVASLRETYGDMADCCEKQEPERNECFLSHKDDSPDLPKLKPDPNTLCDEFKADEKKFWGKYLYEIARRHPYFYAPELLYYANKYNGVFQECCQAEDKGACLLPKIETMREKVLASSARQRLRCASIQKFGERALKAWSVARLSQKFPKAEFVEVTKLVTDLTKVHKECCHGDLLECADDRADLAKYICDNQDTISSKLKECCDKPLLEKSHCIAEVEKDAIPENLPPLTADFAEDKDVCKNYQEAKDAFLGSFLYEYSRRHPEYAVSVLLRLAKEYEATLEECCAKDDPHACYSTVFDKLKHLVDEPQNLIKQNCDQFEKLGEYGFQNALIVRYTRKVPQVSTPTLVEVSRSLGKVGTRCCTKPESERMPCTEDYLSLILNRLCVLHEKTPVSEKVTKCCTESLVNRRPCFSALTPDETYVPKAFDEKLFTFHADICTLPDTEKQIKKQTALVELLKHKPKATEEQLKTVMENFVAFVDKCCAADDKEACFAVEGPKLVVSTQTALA", "assay": "Binding affinity to bovine serum albumin 5 to 20 uM incubated for 30 mins by mass spectrometry analysis", "assay_type": "ADME", "conditions": "cattle, isolated protein, 0.5 h, dose 5-20 µM"}, "[4]": {"test_system": "BV-2", "assay": "Neuroprotective activity against LPS/IFN-gamma induced mouse BV-2 cells assessed as reduction in ROS level by measuring change in fluorescence intensity at 10 uM incubated for 48 hrs by CellROX reagent based fluorescence analysis", "assay_type": "functional, cell-based"}, "[5]": {"test_system": "BV-2", "assay": "Neuroprotective activity against LPS/IFN-gamma induced mouse BV-2 cells assessed as effect on cell viability at 10 uM incubated for 48 hrs by MTT assay", "assay_type": "functional, cell-based"}, "[6]": {"biological_target": "T1, NADPH oxidase 2", "assay": "Inhibition of human NOX2 by cell based assay"}, "[7]": {"biological_target": "T3, NADPH oxidase 1 (Homo sapiens, UniProt Q9Y5S8)", "T3 sequence (Q9Y5S8 whole entry)": "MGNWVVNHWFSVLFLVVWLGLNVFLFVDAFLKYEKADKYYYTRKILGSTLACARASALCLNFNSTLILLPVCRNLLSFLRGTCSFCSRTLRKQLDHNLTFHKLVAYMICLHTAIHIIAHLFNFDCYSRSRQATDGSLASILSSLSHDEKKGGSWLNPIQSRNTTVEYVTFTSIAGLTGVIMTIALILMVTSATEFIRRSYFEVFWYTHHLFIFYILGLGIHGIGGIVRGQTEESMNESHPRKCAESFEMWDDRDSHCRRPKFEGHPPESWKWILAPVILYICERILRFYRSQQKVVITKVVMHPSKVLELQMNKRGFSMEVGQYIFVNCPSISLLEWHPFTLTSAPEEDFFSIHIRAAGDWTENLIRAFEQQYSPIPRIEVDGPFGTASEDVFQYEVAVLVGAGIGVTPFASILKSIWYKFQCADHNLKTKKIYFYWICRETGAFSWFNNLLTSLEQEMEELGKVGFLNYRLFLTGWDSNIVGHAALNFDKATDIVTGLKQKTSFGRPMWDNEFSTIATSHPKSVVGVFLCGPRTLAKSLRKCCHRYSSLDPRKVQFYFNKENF", "assay": "Inhibition of human NOX1"}, "[8]": {"biological_target": "T4, NADPH oxidase 5 (Homo sapiens, UniProt Q96PH1)", "T4 sequence (Q96PH1 whole entry)": "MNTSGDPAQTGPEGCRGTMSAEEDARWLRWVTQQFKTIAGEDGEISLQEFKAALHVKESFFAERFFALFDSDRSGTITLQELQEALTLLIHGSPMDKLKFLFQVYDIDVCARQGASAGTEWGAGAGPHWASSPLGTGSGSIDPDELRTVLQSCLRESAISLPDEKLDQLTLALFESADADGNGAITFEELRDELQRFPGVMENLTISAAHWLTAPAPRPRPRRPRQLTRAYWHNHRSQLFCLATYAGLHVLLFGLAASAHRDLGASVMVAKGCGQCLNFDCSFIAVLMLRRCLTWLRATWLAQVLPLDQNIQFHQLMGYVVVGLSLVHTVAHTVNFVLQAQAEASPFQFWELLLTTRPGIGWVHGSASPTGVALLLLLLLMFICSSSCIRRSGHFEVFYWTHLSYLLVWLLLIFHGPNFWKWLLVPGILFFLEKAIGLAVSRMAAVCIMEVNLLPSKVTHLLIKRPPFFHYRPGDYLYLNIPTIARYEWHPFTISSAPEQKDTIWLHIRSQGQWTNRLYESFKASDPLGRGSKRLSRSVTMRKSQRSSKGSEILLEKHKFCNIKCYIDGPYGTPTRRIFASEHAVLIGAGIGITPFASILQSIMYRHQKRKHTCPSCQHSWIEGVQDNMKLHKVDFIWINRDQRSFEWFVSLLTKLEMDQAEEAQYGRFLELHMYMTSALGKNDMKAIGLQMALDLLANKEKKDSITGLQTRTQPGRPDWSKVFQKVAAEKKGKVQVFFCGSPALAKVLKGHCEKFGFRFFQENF", "assay": "Inhibition of human NOX5"}},
  "note": "Calls of active or inactive are those of the source. The rule behind the calls is not given here.",
  "data": [
    {"compound": "Clc1ncnc2c1nnn2Cc1ccccc1", "values": [
      {"measurement": "IC50", "setting": "[1]", "result": 5.1, "unit": "µM"},
      {"measurement": "IC50", "setting": "[2]", "result": 5.7, "unit": "µM"}
    ]},
    {"compound": "C#CCN(C)Cc1ccc(Cn2nnc3c(Sc4nc5ccccc5o4)ncnc32)cc1", "values": [
      {"measurement": "Activity", "setting": "[3]", "result": "Not_active"},
      {"measurement": "Activity", "setting": "[4]", "result": "Active"},
      {"measurement": "Activity", "setting": "[5]", "result": "Active"}
    ]},
    {"compound": "c1ccc(-c2cc(NC3CCNCC3)nc3ccccc23)cc1", "values": [
      {"measurement": "EC50", "setting": "[6]", "result": 5.7, "unit": "µM"},
      {"measurement": "IC50", "setting": "[1]", "result": 7.7, "unit": "µM"},
      {"measurement": "IC50", "setting": "[2]", "result": 81.2, "unit": "µM"},
      {"measurement": "IC50", "setting": "[7]", "result": 71.2, "unit": "µM"},
      {"measurement": "IC50", "setting": "[8]", "result": 28, "unit": "µM"}
    ]},
    {"compound": "c1ccc(Cn2nnc3c(Sc4nc5ccccc5o4)ncnc32)cc1", "values": [
      {"measurement": "Activity", "setting": "[4]", "result": "Active"}
    ]},
    {"compound": "C#CCN[C@@H]1CCc2ccccc21", "values": [
      {"measurement": "Activity", "setting": "[5]", "result": "Active"}
    ]},
    {"compound": "O=C1c2ccccc2-c2cc(N3CCC4(CC3)OCCO4)nc3cccc1c23", "values": [
      {"measurement": "EC50", "setting": "[6]", "result": 2.1, "unit": "µM"},
      {"measurement": "IC50", "setting": "[1]", "result": 5.1, "unit": "µM"},
      {"measurement": "IC50", "setting": "[2]", "result": 5.7, "unit": "µM"}
    ]}
  ]
}
